Patent US10335365B2, “Bladder cancer specific ligand peptides” (The Regents of the University of California, priority 2009, dated 2019)
Positions of bridges follow the written chain, without caps; N, C: chain ends. Non-standard residues stand in square brackets, D forms with d. No end group written: not given here.

Legend:
[1] = test system: bladder TCC cell lines 5637, T24 and TCCSUP; assay: Whole cell bead binding assay, bladder TCC cell lines; design: species or system human; conditions: peptide on OBOC beads; 5637, T24, TCCSUP
Description: The beads were washed extensively with double-distilled water and phosphate-buffered saline (PBS) before screening. Bladder cancer cells and normal urothelial cells were detached from culture dishes with trypsin/EDTA or a Detach kit (PromoCell, Heidelberg, Germany), washed with their corresponding culture medium, resuspended at 10^6 cells/ml and incubated with OBOC beads in Petri dishes in a humidified CO2 incubator at 37° C. with shaking (60 rpm). Beads bound by cells appeared as rosettes with a central bead covered by a layer(s) of cells under a microscope. The positive beads were picked with a pipette under inverted microscope, treated with Quanidine HCl (8M, 20 min) to remove cells and proteins on beads surface, and underwent a second round of incubation with the same cells to confirm the binding. Only those beads with cell bindings at both rounds were sent for the amino acid sequencing as previously described (Peng, et al., Nat Chem Biol, (2006) 2: 381-389).
Whole cell bead binding assay was used to screen libraries for peptides that bind bladder cancer cell cultures (FIG. 1). Approximately 150,000 library beads (peptides) were screened against each of 4 bladder cancer cell lines (three transitional cell carcinoma (TCC) lines: T24, TCCSUP and 5637, and one squamous cell line SCaBER). […]

[2] = test system: parental K562 cells or cells transfected other integrins; assay: Bead binding to parental K562 cells or cells transfected with other integrins; conditions: OBOC beads bearing PLZ4
Description: Here, OBOC beads bearing PLZ4 peptides on the surface were incubated with K562 cells transfected with various integrins. K562 cells express endogenous a501 integrin. […] Several other ligands obtained from the initial screening also contain the DGR motif. […] To identify which amino acids are involved in determining cell binding and binding specificity, “alanine walk” was performed combined with the rainbow bead coding methods (Luo, et al., J Comb Chem, (2008) 10: 599-604). The amino acids aspartic acid (D, the X2 position), arginine (R, X4) and phenylalanine (F, X7) are important for cell binding. Replacement of any of these amino acids with alanine completely abolished the binding of the peptides to 5637 cells (FIG. 6B). […] Methionine at the X5 position could be replaced to many other amino acids without compromising the binding affinity. Based on this analysis, the three amino acids (D, G and R) at the N-terminus together with the two amino acids (G and F) at the C-terminus determine the binding specificity. Therefore, the binding pocket may be in the clover shape: one for the N-terminal three amino acids, one for the C-terminal two amino acids and a middle pocket. So w the depth of the middle binding pocket by adding different numbers of glycine residue to the X5 position. […]

[3] = test system: Human bladder cancer cell line 5637; assay: Whole cell binding assay of Example 2, 5637 positive control; conditions: PLZ4 beads, 10^6 cells/ml
Description: This experiment was repeated 3 times for cell lines. […] 5637 human bladder cancer cell line; b. […] The average diameter of the beads is 90 μm. […] This experiment was repeated for 3 times. (200×)
To determine the binding of PLZ4 to canine TCC cell lines, whole cell binding assay was performed. PLZ4 was synthesized on TentaGel S NH2 resin beads (Rapp Polymere Gmbh, Germany) (Pegram, et al., J Clin Oncol (1998) 16:2659-2671), and incubated with single suspensions of five different canine carcinoma cell lines including K9TCC-PU, K9TCC-PU-AxA, K9TCC-PU-In, K9TCC-PU-AxC, and K9TCC-PU-Nk (kindly provided by Deborah Knapp at Purdue University, West Lafayette, Ind., USA) at 10^6 cells/ml. The negative control was normal urothelial cells obtained from dogs that were euthanized due to non-bladder-related disorders. Human bladder cancer cell line, 5637 were served as the positive control. If PLZ4 bound to cells in suspension, then the bead surface was covered with cells. Over 95% of the bead surface was covered with 5637 and K9TCC cells (FIG. 7A-a and b, respectively).

[4] = test system: K9TCC, K9TCC-PU-In and K9TCC-PU-Nk cells; assay: WST-8 cell proliferation assay; format: cell-based, canine; conditions: 48 hours, various concentrations, compared with PBS control
Description: FIG. 8A-B. Binding affinity and biological effects of PLZ4 against canine TCC cell lines. A. Binding affinity of PLZ4 against K9TCC-PU and K9TCC-PU-In. Twenty thousands of K9TCC-PU and K9TCC-PU-In were seeded in 96 well plates. After culture for 24 hours, cells were fixed and incubated with different concentrations of PLZ4-biotin for 1.5 hours following avidin-HRP for another 1 hour. Cells treated with avidin-HRP only were served as background control. The color was developed using TMB substrate and read by ELISA readers. The experiment was performed in triplicates and repeated for 3 times. The mean value of the 3 experiments were shown. B. Biological effects of PLZ4 on canine TCC cell lines. Ten thousand K9TCC-PU-In and K9TCC-PU cells were seeded in the 96 well plates and treated with increasing concentrations of PLZ4 or PBS for 2 days. The cell proliferation assay was assessed by WST-8 assay per manufacturer's protocol. Cells treated with PBS were used as 100% control. Each group was performed in triplicate, repeated for 3 times. Mean values at each concentration are presented.
Ligand binding on the cell surface molecules may initiate cell signaling and exert biological effects on cells. The effect of PLZ4 on cell viability and proliferation was determined, as it may have potential clinical applications. […]

Substance: cQDGRMGFc ([dC]QDGRMGF[dC]; disulfide 1-9 (inferred)) [PLZ4, bladder cancer-specific ligand peptide]
- binding to bladder TCC cell lines [1]: bound to all three bladder TCC cell lines
- binding to parental K562 cells or cells transfected with other integrins [2]: not to the parental K562 cells or cells transfected other integrins
- bead surface covered with cells [3]: Over 95%
- cell proliferation/viability [4]: no significant changes in cell proliferation/viability
